Test results as given in patent US20240365784A1, “AZOLE COMPOUNDS FOR CONTROLLING INVERTEBRATE PESTS” (FMC Corporation, priority 2021, published 2024).

Tests used:
[1] = tested on: corn planthopper (Peregrinus maidis (Ashmead)); experiment: whole plant or invertebrate; assay type: in vivo; conditions: 144 h, corn plant, nymphs, assessed after 6 days; for mortality at 10 ppm: sprayed at 10 ppm; for mortality at 50 ppm: sprayed at 50 ppm
Experimental: (§1) Test compounds were formulated using a solution containing 10% acetone, 90% water and 300 ppm Activator 90® non-ionic surfactant (Loveland Products, Loveland, Colorado, USA). The formulated compounds were applied in 1 mL of liquid through an atomizer nozzle positioned 1.27 cm (0.5 inches) above the top of each test unit. Test compounds were sprayed at the rates indicated, and each test was replicated three times.
For evaluating control of corn planthopper (Peregrinus maidis (Ashmead)) through contact and/or systemic means, the test unit consisted of a small open container with a 3-4-day-old corn (maize) plant inside. White sand was added to the top of the soil prior to application of the test compound.
(§2) Test compounds were formulated and sprayed at 250 and/or 50 ppm and/or 10 ppm. After spraying of the formulated test compound, the test units were allowed to dry for 1 h before they were post-infested with ˜15-20 nymphs (18-to-21-day-old). A black, screened cap was placed on the top of each test unit, and the test units were held for 6 days in a growth chamber at 22-24° C. and 50-70% relative humidity. Each test unit was then visually assessed for insect mortality.

[2] = tested on: sweetpotato whitefly (Bemisia tabaci (Gennadius)); experiment: whole plant or invertebrate; assay type: in vivo; conditions: 312 h, cotton plant infested with eggs, assessed after 13 days; for mortality at 50 ppm: sprayed at 50 ppm; for mortality at 10 ppm: tested at 10 ppm
Experimental: as §1
For evaluating control of the sweetpotato whitefly (Bemisia tabaci (Gennadius)) through contact and/or systemic means, the test unit consisted of a small open container with a 12-14-day-old cotton plant inside. Prior to the spray application, both cotyledons were removed from the plant, leaving one true leaf for the assay. Adult whiteflies were allowed to lay eggs on the plant and then were removed from the test unit. Cotton plants infested with at least 15 eggs were submitted to the test for spraying.
[…] After spraying, the test units were allowed to dry for 1 hour. The cylinders were then removed, and the units were taken to a growth chamber and held for 13 days at 28° C. and 50-70% relative humidity. Each test unit was then visually assessed for insect mortality.

[3] = tested on: cotton melon aphid (Aphis gossypii (Glover)); experiment: whole plant or invertebrate; assay type: in vivo; conditions: 144 h, okra plant, assessed after 6 days; for mortality at 50 ppm: sprayed at 50 ppm; for mortality at 10 ppm: tested at 10 ppm
Experimental: as §1
For evaluating control of cotton melon aphid (Aphis gossypii (Glover)) through contact and/or systemic means, the test unit consisted of a small open container with a 5-day-old okra plant inside. This was pre-infested with 30-40 insects on a piece of leaf according to the cut-leaf method, and the soil of the test unit was covered with a layer of sand.
[…] After spraying, the test units were maintained in a growth chamber for 6 days at 19° C. and 70% relative humidity. Each test unit was then visually assessed for insect mortality.

[4] = tested on: green peach aphid (Myzus persicae (Sulzer)); experiment: whole plant or invertebrate; assay type: in vivo; conditions: 144 h, tested at 10 ppm, radish plant, assessed after 6 days
[5] = tested on: Brown Planthopper (Nilaparvata lugens (Stil)); experiment: Test F: control of Brown Planthopper, spray, contact and/or systemic; assay type: in vivo; conditions: 120 h, sprayed at 10 ppm, rice stems, nymphs, assessed after 5 days
Experimental: as §1
For evaluating control of Brown Planthopper (Nilaparvata lugens (Stil)) through contact and/or systemic means, the test unit consisted of a small open container with 6-10 25-day-old rice stems inside. White sand was added to the top of the soil prior to application of the test compound.
as §2, with “at” for “at 250 and/or”, “(15-to-17-day-old).” for “(18-to-21-day-old).”, “5” for “6”, “28°” for “22-24°”, “65%” for “50-70%”

[6] = tested on: green peach aphid (Myzus persicae (Sulzer)); experiment: whole plant or invertebrate; assay type: in vivo; conditions: 144 h, sprayed at 50 ppm, radish plant, assessed after 6 days
Experimental: as §1
For evaluating control of green peach aphid (Myzus persicae (Sulzer)) through contact and/or systemic means, the test unit consisted of a small open container with a 12-15-day-old radish plant inside. This was pre-infested by placing on a leaf of the test plant 30-40 aphids on a piece of leaf excised from a culture plant (cut-leaf method). The aphids moved onto the test plant as the leaf piece desiccated. After pre-infestation, the soil of the test unit was covered with a layer of sand.
Test compounds were formulated and sprayed at 250 and/or 50 ppm. After spraying of the formulated test compound, each test unit was allowed to dry for 1 hour and then a black, screened cap was placed on top. The test units were held for 6 days in a growth chamber at 19-21° C. and 50-70% relative humidity. Each test unit was then visually assessed for insect mortality.

[7] = tested on: potato leafhopper (Empoasca fabae (Harris)); experiment: Test B: control of potato leafhopper, spray, contact and/or systemic; assay type: in vivo; conditions: tested at 50 ppm; Soleil bean plant, adults, assessed after 6 days
Experimental: as §1
Each test unit was then visually assessed for insect mortality.

In the case of `FC(F)(F)Sc1ccc(Cc2c(Br)cncc2-n2nccn2)cc1` [Compound 26], the mortality at 10 ppm [1] is reported as no less than 80%, the mortality at 50 ppm [1] is reported as no less than 80% and the mortality at 50 ppm [2] is reported as no less than 70%. The mortality at 10 ppm [2] was no less than 70%, the mortality at 50 ppm [3] was no less than 80% and the mortality at 10 ppm [3] was no less than 80%. The mortality at 10 ppm [4] was no less than 80%, the mortality at 10 ppm [5] was no less than 80% and the mortality at 50 ppm [6] was no less than 80%.
Work on `Fc1cncc(-n2cncn2)c1Cc1ccc(SC(F)(F)F)cc1` [Compound 24] yielded a mortality at 50 ppm [3] of no less than 80%, a mortality at 10 ppm [4] of no less than 80% and a mortality at 50 ppm [6] of no less than 80%.
For `Fc1cncc(-n2nccn2)c1Cc1ccc(SC(F)(F)F)cc1` [Compound 2], the mortality at 10 ppm [1] was no less than 80%, the mortality at 50 ppm [1] was no less than 80% and the mortality at 50 ppm [3] was no less than 80%. It also gave a mortality at 10 ppm [3] of no less than 80%, a mortality at 10 ppm [4] of no less than 80% and a mortality at 10 ppm [5] of no less than 80%. The mortality at 50 ppm [6] was no less than 80%.
With `Fc1cncc(-n2nccn2)c1Cc1ccc(Br)cc1` [Compound 31] the melting point was 80 to 83 °C.
For `CC(c1ccc(SC(F)(F)F)cc1)c1c(F)cncc1-n1nccn1` (stereo not shown) [Compound 8], the mortality at 10 ppm [1] was no less than 80%, the mortality at 50 ppm [1] was no less than 80% and the mortality at 50 ppm [3] was no less than 80%. For the same molecule, the mortality at 10 ppm [3] was no less than 80%, the mortality at 10 ppm [5] was no less than 80% and the mortality at 50 ppm [6] was no less than 80%.
`Fc1cc(Cc2c(Cl)cncc2-n2nccn2)ccc1OC(F)(F)F` [Compound 70] gave a mortality at 10 ppm [1] of no less than 80%, a mortality at 50 ppm [1] of no less than 80% and a mortality at 50 ppm [3] of no less than 80%. It also gave a mortality at 10 ppm [3] of no less than 80%, a mortality at 10 ppm [4] of no less than 80% and a mortality at 50 ppm [6] of no less than 80%.
Work on `FC(F)(F)Sc1ccc(Cc2c(Cl)cncc2-n2nccn2)cc1` [Compound 5] yielded a mortality at 10 ppm [1] of no less than 80%, a mortality at 50 ppm [1] of no less than 80% and a mortality at 50 ppm [2] of no less than 70%. For the same molecule, the mortality at 10 ppm [2] was no less than 70%, the mortality at 50 ppm [3] was no less than 80% and the mortality at 10 ppm [4] was no less than 80%. For the same molecule, the mortality at 10 ppm [5] was no less than 80% and the mortality at 50 ppm [6] was no less than 80%.
In the case of `Fc1cncc(-n2cccn2)c1Cc1ccc(SC(F)(F)F)cc1` [Compound 19], the mortality at 10 ppm [1] is reported as no less than 80%, the mortality at 50 ppm [2] is reported as no less than 70% and the mortality at 10 ppm [2] is reported as no less than 70%. It also gave a mortality at 50 ppm [3] of no less than 80%, a mortality at 10 ppm [3] of no less than 80% and a mortality at 10 ppm [5] of no less than 80%. It also gave a mortality at 50 ppm [6] of no less than 80%.
With `[O-][S+](c1ccc(Cc2ccncc2-n2nccn2)cc1)C(F)(F)F` (stereo not shown) [Compound 28] the melting point was 81 to 84 °C.
In the case of `Cc1cnn(-c2cncc(F)c2Cc2ccc(OC(F)(F)F)cc2)n1` [Compound 3, 3-fluoro-5-(4-methyltriazol-2-yl)-4-[[4-(trifluoromethoxy)phenyl]methyl]pyridine], the mortality [7] is reported as “at least 80%”.
In the case of `FC(F)(F)Sc1ccc(Cc2c(Cl)cncc2-n2cncn2)cc1` [Compound 21], the mortality at 50 ppm [2] is reported as no less than 70%, the mortality at 10 ppm [2] is reported as no less than 70% and the mortality at 50 ppm [3] is reported as no less than 80%. For the same molecule, the mortality at 10 ppm [4] was no less than 80% and the mortality at 50 ppm [6] was no less than 80%.
`Fc1cncc(-n2nccn2)c1Cc1ccc(OC(F)(F)F)cc1` [Compound 1, 3-fluoro-5-(triazol-2-yl)-4-[[4(trifluoromethoxy)phenyl]methyl]pyridine] showed a mortality at 10 ppm [1] of no less than 80%, a mortality at 50 ppm [1] of no less than 80% and a mortality at 50 ppm [2] of no less than 70%. It also gave a mortality at 10 ppm [5] of no less than 80% and a mortality at 50 ppm [6] of no less than 80%.
With `FC(F)(F)Sc1ccc(Cc2c(Cl)cncc2-n2cccn2)cc1` [Compound 20] the mortality at 10 ppm [1] was no less than 80%, the mortality at 50 ppm [1] was no less than 80% and the mortality at 50 ppm [2] was no less than 70%. For the same molecule, the mortality at 10 ppm [2] was no less than 70%, the mortality at 50 ppm [3] was no less than 80% and the mortality at 10 ppm [3] was no less than 80%. For the same molecule, the mortality at 10 ppm [5] was no less than 80% and the mortality at 50 ppm [6] was no less than 80%.
